# Columns and labels:
# [1] = DPPH free radical scavenging assay
# Protocol: For antioxidant activity, DPPH (2, 2-diphenyl-1-picrylhydrazyl) free radical scavenging assay was employed. This method was carried out as previously described by Brand-Williams et al. ([1995]). The method quantifies free radical scavenging capacity of the investigated samples. DPPH is a molecule that contains a stable free radical. In the presence of an antioxidant which is able to donate an electron to DPPH, the change in the absorbance at 517 nm is followed spectrophotometrically (UV mini-1240, Shimadzu, Japan). Various concentrations of […] (10, 50, 100, 500, and 1000 μg/mL) were used. The assay mixture was made up of a total volume of 1 mL, containing 500 μL of the sample, 125 μL of the prepared DPPH, and 375 μL of methanol. As positive control, ascorbic acid was used. The samples were incubated for 30 min at 25 °C, after which the decrease in absorbance was measured at λ = 517 nm. Radical scavenging activity of the samples were calculated using the following equation below: (1) % radical scavenging activity=(Abs control − Abs sample/Abs control) ×100
# [2] = Equilibrium solubility (shake flask); type: physicochemical; details: for Solubility in Water (100%): 100% water
# Protocol: […] The samples were prepared by adding an excess amount of SN and DN to the formulations, which was then thoroughly agitated with a vortex mixer to ensure adequate mixing. Three replicates were taken for each formulation. The samples for the solubility experiments were analyzed using in-house developed UHPLC method by dissolving each of the formulations with an appropriate solvent.
# [3] = tested on: Diabetic mice (STZ); experiment: Anti-diabetic study in streptozotocin-induced diabetic mice; type: in vivo, Swiss albino mice; details: DN 6 mg/kg, SN 10 mg/kg; for Glucose level 0 h: STZ (60 mg/kg) diabetic mice, before dose; for Glucose level 0 h / Glucose level 2 h: Mean ± SEM, n = 3; for Glucose level decrease / Glucose level 2 h / % Inhibition of glucose level: STZ diabetic mice; for Glucose level decrease: 0 h to 2 h; for Glucose level 2 h / % Inhibition of glucose level: 2 h after dose
# Protocol: Male Swiss albino mice (20–25 g) roughly of same age group were procured from the Experimental Animal Care Center, College of Pharmacy, King Saud University, with the approval Clearance No. KSU-SE—19-105 (20th November 2019) by the Ethical committee. The animals used in this study were kept at 22 °C temperature by maintaining 55% humidity and light/dark (12/12 h) conditions. They were provided free access to Purina chow and drinking water ad libitum. The […] were initially acclimatized for seven days prior to being used for the anti-diabetic studies.
# Diabetes was induced overnight in fasted mice by single intraperitoneal (IP) injection of 60 mg/kg of streptozotocin (STZ) that was freshly dissolved in 0.1 M cold citrate buffer at pH 4.5. After 72 h of STZ administration, blood was collected from the animals and plasma glucose levels were examined. Animals that were confirmed diabetic by the elevated plasma glucose levels (>200 mg/dl) were used for the experiment. The animals were then randomly assigned into seven groups of three animals and received the following treatments: Group I: Normal control mice treated with Normal saline; Group II: Diabetic control mice treated with Normal saline; Group III: Diabetic mice treated with thymoquinone 5 mg/kg (IP); Group IV: Diabetic mice treated with DN 6 mg/kg (IP); Group V: Diabetic mice treated with SN 10 mg/kg (IP); Group VI: Diabetic mice treated with DN 6 mg/kg (IP) and SN 10 mg/kg (IP); Group VII: Diabetic mice treated with marketed product Dapazin® 6 mg/kg (IP).
# [4] = tested on: SGLT2; details: ref Santos et al., 2017, Wilding et al.; cited from earlier work
# [5] = In vivo oral bioavailability / pharmacokinetic study; details: male, Wister, rat, plasma, 6 mg/kg; rats, after oral administration; read-out: Time to peak plasma levels
# Protocol: Male rats (Wister, 200–220 g) were obtained from Laboratory Animal Center of pharmacy college, KSU. The rats were randomly allocated into two groups, each group consisted of six rats: the representative SNEDDS [F1, BSO/CMCM/CrEL (15/35/50%w/w)] (group A) and marketed drug (group B). The animals were fasted for 12 h prior to the oral administration of SNEDDS of DN (6 mg/kg rat). The experimental procedures were carried out in accordance with the principles of National Institute of Health Guide for the Care and Use of Laboratory Animals (NIH Publications No. 80–23; 1996) as well as the animal facilities guidelines from the Ethical committee of Experimental Animal Care Center, College of Pharmacy, King Saud University (Clearance No. KSU-SE—19-105; 20th November 2019). […]
# In vivo animal studies were performed using only DN in the dose and SN was not included due to the different pharmacokinetic features of the SN and DN. […] The concentration of DN in plasma was determined by UHPLC as follow: A 775 μL of methanol was added to 225 μL aliquot of plasma. […] The nonlinear pharmacokinetic parameters such as Cmax, Tmax, and AUC(0–∞) were determined.
# The pharmacokinetic assessment was done after oral administration on the basis of DN concentrations in the plasma samples of the rat. […] This was vortexed and transferred to an auto sampler vial to be analyzed in the UHPLC system. […]
# [6] = β-carotene–linoleic acid (bleaching) assay; details: 1000 µg
# Protocol: The antioxidant activity of the samples were evaluated using the β-carotene bleaching method described by Velioglu et al. ([1998]) with modifications. One milliliter (1 mL) of a 0.2 mg/mL solution of β -carotene in chloroform was added to flasks containing 0.2 mL of Tween 20 and 0.02 mL of linoleic acid. The chloroform was removed in a rotary evaporator at 40 °C. The resulting mixture was then diluted with 100 mL of distilled water and mixed for approximately 2 min to form an emulsion. Similarly, another mixture was prepared without β-carotene to use as a blank. A control containing 0.2 mL of 80% (v/v) methanol was also used instead of sample. Aliquot of the emulsion (5 mL) was added to 0.2 mL of the sample at 1 mg/mL. As a standard, Rutin (1 mg/mL) was used. The tubes were incubated in a water bath at 40 °C for 2 h. Absorbance was measured at 470 nm at 15 min intervals, using a UV–visible spectrophotometer (UV mini-1240, Shimadzu, Japan) and the antioxidant activity was calculated from the equation below: (2) % of antioxidant activity= (Abs0 − Abst)/(Abs0° − Abst°) ×100 where, Abs0 and Abs0° represented the absorbance values measured at zero time of incubation for sample extract and control, respectively. Abst and Abst° are the absorbance values at t = 120 min for samples and control, respectively.
compound,measurement,setting,value
O=C1O[C@H]([C@@H](O)CO)C(O)=C1O [Ascorbic acid],Radical scavenging activity,[1]; 10 µg,33.7 ± 3.5%
same,Radical scavenging activity,[1]; 50 µg,74.1 ± 1.3%
same,Radical scavenging activity,[1]; 100 µg,85.6 ± 3.2%
same,Radical scavenging activity,[1]; 500 µg,88.7 ± 2.7%
same,Radical scavenging activity,[1]; 1000 µg,91.7 ± 3.4%
"CCOc1ccc(Cc2cc([C@@H]3O[C@H](CO)[C@@H](O)[C@H](O)[C@H]3O)ccc2Cl)cc1 [Dapagliflozin, dapagliflozin]",Solubility in Water (100%),[2],1.48 ± 0.14 mg/g
same,Glucose level 0 h,[3],362.00 ± 4.93 mg/dL
same,Glucose level decrease,[3],143 mg/dL
same,Glucose level 2 h,[3],219.00 ± 7.57 mg/dL
same,% Inhibition of glucose level,[3]; listed as DN,39.50%
same,% Inhibition of glucose level,[3]; listed as DN (pure),39.50↓ %
same,Selectivity for SGLT2 over SGLT1,[4],1200 fold
same,Tmax,[5],≤ 4 h
C[C@@H]1O[C@@H](OC[C@H]2O[C@@H](Oc3c(-c4ccc(O)c(O)c4)oc4cc(O)cc(O)c4c3=O)[C@H](O)[C@@H](O)[C@@H]2O)[C@H](O)[C@H](O)[C@H]1O [Rutin],Total antioxidant activity,[6],93.1 ± 1.2%
"N[C@@H](CC(=O)N1CCn2c(nnc2C(F)(F)F)C1)Cc1cc(F)c(F)cc1F [Sitagliptin, sitagliptin]",Solubility in Water (100%),[2],3.62 ± 0.11 mg/g
same,Loading of SN in the anhydrous SNEDDS relative to aqueous solubility,[2]; from equilibrium solubility of diluted formulations,> 400%
same,Glucose level 0 h,[3],381.33 ± 11.25 mg/dL
same,Glucose level decrease,[3],208 mg/dL
same,Glucose level 2 h,[3],173.33 ± 7.53 mg/dL
same,% Inhibition of glucose level,[3]; listed as SN,54.54%
same,% Inhibition of glucose level,[3]; listed as SN (Pure),54.54↓ %
